Measured values from US8703961B2, “Thiazole derivatives for the treatment of diseases such as cancer” (Merck Patent GmbH, priority 2009, dated 2014).

Key:
Assay in all cases: filter binding kinase assay
Assay type in all cases: biochemical
AKT2 = target: T1, AKT2 (Homo sapiens, UniProt P31751); details: derived from % inhibition at 1 μM
T1 construct: purchased
Outline: (§1)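 Kinase activity is measured at room temperature by filter binding, with incorporated radiolabel counted after acid termination. A 5-minute preincubation of compound, enzyme and substrate precedes addition of ATP from a kinase-dependent stock (5, 20 or 50 […]).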

EPHB3 = target: T2, EPHB3 (Homo sapiens, UniProt P54753); details: derived from % inhibition at 1 μM
T2 construct: purchased
T2 sequence (P54753 34-998): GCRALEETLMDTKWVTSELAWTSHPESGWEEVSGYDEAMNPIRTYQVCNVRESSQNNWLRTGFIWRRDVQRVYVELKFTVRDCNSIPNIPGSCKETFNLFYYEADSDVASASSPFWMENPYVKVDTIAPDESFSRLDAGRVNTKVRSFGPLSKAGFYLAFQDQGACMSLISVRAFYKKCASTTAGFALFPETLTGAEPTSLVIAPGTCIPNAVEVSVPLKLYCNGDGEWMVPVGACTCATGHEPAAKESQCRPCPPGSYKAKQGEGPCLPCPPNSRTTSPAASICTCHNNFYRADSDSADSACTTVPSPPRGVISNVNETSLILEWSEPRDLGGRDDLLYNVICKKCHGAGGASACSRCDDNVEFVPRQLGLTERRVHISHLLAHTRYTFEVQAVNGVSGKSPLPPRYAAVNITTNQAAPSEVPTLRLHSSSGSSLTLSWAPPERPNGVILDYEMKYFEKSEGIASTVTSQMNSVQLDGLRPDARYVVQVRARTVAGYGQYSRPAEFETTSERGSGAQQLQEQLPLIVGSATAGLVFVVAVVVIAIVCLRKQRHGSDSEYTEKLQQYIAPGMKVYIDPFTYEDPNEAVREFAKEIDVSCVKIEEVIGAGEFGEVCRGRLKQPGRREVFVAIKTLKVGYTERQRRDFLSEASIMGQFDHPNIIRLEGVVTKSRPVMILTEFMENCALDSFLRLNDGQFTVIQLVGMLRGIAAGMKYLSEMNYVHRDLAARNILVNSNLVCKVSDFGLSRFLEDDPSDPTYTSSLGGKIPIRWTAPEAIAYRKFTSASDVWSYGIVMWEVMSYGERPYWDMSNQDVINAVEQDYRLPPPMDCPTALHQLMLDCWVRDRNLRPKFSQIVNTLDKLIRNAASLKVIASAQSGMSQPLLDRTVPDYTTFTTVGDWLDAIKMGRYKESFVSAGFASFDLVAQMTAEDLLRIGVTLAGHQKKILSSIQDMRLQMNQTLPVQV
Outline: as §1

INSR = target: T3, INSR (Homo sapiens, UniProt P06213); details: derived from % inhibition at 1 μM
T3 construct: purchased
T3 sequence (P06213 28-1382, species assumed): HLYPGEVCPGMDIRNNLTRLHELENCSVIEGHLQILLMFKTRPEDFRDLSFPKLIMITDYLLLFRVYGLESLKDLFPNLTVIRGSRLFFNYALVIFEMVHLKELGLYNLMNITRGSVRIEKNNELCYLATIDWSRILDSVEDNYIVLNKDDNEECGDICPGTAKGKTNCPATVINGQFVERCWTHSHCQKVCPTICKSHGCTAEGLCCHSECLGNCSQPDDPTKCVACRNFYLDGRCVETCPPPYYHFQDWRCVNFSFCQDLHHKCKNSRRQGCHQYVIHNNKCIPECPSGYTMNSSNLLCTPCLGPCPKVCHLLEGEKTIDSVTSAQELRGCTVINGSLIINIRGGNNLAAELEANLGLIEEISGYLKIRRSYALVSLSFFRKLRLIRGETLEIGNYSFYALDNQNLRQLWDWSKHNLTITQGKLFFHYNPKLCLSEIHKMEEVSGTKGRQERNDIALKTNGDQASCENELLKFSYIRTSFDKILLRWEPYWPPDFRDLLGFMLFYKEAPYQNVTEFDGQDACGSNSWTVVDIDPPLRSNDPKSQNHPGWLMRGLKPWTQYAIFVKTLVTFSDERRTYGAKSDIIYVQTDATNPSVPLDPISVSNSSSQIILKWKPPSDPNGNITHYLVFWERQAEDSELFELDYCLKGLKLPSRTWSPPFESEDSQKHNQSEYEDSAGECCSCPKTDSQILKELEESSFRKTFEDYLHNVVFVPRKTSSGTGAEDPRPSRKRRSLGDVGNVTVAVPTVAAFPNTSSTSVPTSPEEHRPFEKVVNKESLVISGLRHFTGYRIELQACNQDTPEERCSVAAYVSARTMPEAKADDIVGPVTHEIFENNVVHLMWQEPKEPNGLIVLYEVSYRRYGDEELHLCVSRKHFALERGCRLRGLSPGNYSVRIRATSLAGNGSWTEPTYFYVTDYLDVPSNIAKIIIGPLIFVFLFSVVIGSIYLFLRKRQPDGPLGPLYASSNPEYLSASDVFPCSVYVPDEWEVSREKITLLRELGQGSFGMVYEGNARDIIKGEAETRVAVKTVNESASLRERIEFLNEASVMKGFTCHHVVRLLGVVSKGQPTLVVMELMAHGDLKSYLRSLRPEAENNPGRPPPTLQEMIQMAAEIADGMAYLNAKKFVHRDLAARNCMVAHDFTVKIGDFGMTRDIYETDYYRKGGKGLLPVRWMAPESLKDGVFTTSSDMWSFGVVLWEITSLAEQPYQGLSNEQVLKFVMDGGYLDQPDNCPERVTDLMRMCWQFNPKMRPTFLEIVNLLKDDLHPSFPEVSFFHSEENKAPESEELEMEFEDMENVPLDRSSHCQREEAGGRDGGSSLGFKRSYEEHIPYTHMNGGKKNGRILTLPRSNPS
Outline: as §1

KDR (VEGFR) = target: T4, KDR (VEGFR) (Homo sapiens, UniProt P35968); details: for IC50: derived from % inhibition at 1 μM
T4 construct: purchased
Outline: as §1

MAPK11 = target: T5, MAPK11 (Homo sapiens, UniProt Q15759); details: derived from % inhibition at 1 μM
T5 construct: purchased
T5 sequence (Q15759 whole entry, species assumed): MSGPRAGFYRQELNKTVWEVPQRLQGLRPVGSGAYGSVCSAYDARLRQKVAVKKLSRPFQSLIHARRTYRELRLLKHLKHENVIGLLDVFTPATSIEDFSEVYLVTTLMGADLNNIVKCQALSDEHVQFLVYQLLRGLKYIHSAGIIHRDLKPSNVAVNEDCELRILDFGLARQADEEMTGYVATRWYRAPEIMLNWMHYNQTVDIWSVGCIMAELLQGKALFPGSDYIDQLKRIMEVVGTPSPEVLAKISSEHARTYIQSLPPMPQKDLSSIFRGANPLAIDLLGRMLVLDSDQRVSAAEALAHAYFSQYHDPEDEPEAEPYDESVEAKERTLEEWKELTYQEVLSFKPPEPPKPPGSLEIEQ
Outline: as §1

MKNK2 = target: T6, MKNK2 (Homo sapiens, UniProt Q9HBH9); details: derived from % inhibition at 1 μM
T6 construct: purchased
T6 sequence (Q9HBH9 whole entry, species assumed): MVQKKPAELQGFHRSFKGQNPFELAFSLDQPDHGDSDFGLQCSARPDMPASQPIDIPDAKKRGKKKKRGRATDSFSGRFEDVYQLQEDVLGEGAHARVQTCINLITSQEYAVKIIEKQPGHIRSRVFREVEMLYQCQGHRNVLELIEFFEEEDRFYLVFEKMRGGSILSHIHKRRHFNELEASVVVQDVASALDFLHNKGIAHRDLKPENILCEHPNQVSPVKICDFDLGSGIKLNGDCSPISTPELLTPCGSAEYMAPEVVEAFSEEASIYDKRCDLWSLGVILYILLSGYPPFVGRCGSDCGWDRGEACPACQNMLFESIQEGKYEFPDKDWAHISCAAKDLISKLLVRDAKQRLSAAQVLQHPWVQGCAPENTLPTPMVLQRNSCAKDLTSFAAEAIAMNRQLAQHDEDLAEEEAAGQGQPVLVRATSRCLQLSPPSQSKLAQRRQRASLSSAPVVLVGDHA
Outline: as §1

PAK4 (PAK-4) = target: T7, PAK4 (PAK-4) (Homo sapiens, UniProt O96013); details: for IC50: derived from % inhibition at 1 μM
T7 construct: purchased
T7 sequence (O96013 whole entry, species assumed): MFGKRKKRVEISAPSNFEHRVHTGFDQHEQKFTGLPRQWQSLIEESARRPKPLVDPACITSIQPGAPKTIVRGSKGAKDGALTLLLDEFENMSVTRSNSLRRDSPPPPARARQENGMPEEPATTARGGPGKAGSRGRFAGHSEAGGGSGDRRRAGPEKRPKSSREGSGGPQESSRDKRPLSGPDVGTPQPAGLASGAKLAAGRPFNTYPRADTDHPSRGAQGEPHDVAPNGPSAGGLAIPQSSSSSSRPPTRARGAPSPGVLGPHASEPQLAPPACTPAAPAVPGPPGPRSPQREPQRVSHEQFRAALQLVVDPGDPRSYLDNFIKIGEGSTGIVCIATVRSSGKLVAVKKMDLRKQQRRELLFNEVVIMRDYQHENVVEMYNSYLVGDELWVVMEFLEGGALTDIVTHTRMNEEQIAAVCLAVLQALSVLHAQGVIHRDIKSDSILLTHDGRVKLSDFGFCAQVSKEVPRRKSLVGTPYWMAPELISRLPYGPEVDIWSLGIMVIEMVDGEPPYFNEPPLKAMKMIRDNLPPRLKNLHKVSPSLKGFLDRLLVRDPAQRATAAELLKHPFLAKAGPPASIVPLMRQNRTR
Outline: as §1

PIM2 = target: T8, PIM2 (Homo sapiens, UniProt Q9P1W9); details: derived from % inhibition at 1 μM
T8 construct: purchased
T8 sequence (Q9P1W9 whole entry, species assumed): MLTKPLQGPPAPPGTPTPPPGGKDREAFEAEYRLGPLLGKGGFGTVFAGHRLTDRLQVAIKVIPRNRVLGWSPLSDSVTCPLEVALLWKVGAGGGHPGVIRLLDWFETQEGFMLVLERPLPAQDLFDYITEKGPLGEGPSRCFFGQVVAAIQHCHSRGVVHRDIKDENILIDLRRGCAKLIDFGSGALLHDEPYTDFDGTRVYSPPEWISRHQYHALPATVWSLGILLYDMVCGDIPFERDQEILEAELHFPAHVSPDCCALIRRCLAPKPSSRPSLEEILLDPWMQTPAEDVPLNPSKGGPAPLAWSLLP
Outline: as §1

STK11 = target: T9, STK11 (Homo sapiens, UniProt Q15831); details: derived from % inhibition at 1 μM
T9 construct: purchased
T9 sequence (Q15831 1-433): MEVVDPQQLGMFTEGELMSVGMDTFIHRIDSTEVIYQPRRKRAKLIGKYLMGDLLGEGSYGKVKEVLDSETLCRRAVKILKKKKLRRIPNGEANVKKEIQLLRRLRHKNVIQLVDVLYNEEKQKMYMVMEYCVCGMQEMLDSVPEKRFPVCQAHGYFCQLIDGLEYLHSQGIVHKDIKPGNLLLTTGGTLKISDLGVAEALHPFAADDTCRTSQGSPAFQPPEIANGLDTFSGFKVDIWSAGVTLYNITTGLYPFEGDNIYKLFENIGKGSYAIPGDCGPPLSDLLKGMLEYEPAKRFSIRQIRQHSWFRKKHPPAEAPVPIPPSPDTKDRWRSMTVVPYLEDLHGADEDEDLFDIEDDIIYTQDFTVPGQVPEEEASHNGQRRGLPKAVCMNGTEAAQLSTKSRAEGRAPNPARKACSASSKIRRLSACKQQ
T9 sequence (Q7RTN6 1-431 partner): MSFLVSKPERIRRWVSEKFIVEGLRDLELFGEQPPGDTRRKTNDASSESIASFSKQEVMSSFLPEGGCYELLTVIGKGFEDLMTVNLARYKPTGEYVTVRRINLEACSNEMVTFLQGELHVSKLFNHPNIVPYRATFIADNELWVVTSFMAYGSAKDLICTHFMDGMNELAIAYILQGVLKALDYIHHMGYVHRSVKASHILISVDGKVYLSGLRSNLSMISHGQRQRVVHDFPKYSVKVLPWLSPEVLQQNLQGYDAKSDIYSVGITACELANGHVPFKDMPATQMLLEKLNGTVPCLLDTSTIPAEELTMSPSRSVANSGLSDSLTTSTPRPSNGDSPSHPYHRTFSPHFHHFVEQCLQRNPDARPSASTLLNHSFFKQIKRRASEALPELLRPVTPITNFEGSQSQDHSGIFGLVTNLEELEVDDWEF
T9 sequence (Q9Y376 1-341 partner): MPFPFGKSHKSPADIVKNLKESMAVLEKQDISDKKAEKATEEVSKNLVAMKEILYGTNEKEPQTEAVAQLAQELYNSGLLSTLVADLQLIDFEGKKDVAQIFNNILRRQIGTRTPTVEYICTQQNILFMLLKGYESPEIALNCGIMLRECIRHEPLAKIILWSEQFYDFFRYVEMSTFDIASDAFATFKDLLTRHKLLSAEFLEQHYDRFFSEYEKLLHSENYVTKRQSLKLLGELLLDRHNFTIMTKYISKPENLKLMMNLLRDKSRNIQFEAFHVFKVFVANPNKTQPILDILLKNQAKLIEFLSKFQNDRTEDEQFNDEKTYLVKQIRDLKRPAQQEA
Outline: as §1

YES1 = target: T10, YES1 (Homo sapiens, UniProt P07947); details: derived from % inhibition at 1 μM
T10 construct: purchased
T10 sequence (P07947 whole entry, species assumed): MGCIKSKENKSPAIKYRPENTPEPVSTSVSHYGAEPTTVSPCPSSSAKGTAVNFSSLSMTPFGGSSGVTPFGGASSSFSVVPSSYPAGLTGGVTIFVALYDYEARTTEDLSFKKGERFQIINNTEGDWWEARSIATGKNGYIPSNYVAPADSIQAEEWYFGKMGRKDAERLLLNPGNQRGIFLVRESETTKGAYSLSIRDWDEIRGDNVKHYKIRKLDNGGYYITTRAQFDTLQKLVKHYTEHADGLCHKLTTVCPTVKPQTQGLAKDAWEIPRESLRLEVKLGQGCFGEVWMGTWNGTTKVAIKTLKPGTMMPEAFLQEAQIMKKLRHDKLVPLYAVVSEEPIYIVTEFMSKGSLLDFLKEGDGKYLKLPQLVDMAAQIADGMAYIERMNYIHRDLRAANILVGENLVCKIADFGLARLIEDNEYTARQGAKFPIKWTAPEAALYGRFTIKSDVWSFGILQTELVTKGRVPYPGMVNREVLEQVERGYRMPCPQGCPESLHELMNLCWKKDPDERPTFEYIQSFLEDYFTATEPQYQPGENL
Outline: as §1

T1 sequence (P31751 whole entry, species assumed): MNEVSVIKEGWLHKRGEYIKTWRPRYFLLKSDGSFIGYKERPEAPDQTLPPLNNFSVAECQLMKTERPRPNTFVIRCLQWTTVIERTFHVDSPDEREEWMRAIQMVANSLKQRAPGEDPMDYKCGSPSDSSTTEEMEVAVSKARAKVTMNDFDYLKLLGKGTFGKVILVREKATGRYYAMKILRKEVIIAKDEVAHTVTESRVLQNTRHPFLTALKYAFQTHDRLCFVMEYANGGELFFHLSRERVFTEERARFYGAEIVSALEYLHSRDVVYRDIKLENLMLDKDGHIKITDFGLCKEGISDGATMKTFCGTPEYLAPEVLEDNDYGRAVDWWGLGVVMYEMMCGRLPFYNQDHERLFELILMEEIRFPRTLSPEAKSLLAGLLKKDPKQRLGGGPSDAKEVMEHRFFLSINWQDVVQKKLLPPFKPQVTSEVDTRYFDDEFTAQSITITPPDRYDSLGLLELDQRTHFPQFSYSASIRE

Compound | IC50 (AKT2) | IC50 (EPHB3) | IC50 (INSR) | IC50 (KDR (VEGFR)) | IC50 (MAPK11) | IC50 (MKNK2) | IC50 (PAK4 (PAK-4)) | IC50 (PIM2) | IC50 (STK11) | IC50 (YES1) | remaining activity at 1 µM (KDR (VEGFR); read-out: residual kinase activity VEGFR) | remaining activity at 1 µM (PAK4 (PAK-4); read-out: residual kinase activity PAK-4)
c1ccc(Cc2c[nH]c3ncsc23)cc1 [Compound A7, 6-benzyl-4H-pyrrolo[2,3-d]thiazole] | > 1000 nM | > 1000 nM | > 1000 nM | 1000 to 10000 nM | 1000 to 10000 nM | > 1000 nM | > 1000 nM | > 1000 nM | 10000 to 100000 nM | > 1000 nM | – | –
Nc1ncsc1C#Cc1cnc2[nH]ccc2c1 [Compound A22, 5-(1H-pyrrolo[2,3-b]pyridin-5-ylethynyl)thiazol-4-ylamine] | > 1000 nM | 10000 to 100000 nM | 10000 to 100000 nM | 10 to 1000 nM | > 1000 nM | > 1000 nM | 10 to 1000 nM | 10000 to 100000 nM | > 1000 nM | 1000 to 10000 nM | 11% | 34%
CC(C)(C)OC(=O)Nc1nc(-c2ccncc2)sc1C#CCN1CCOCC1 [Compound A25, tert-butyl[5-(3-morpholin-4-ylprop-1-ynyl)-2-pyridin-4-ylthiazol-4-yl]-carbamate] | 1000 to 10000 nM | > 1000 nM | > 1000 nM | > 1000 nM | > 1000 nM | > 1000 nM | > 1000 nM | 1000 to 10000 nM | > 1000 nM | > 1000 nM | – | –
CC(C)(C)OC(=O)Nc1ncsc1C#CCN1C(=O)c2ccccc2C1=O [Compound A26, tert-butyl{5-[3-(1,3-dioxo-1,3-dihydroisoindol-2-yl)prop-1-ynyl]-thiazol-4-yl}carbamate] | > 1000 nM | 1000 to 10000 nM | 1000 to 10000 nM | > 1000 nM | > 1000 nM | 10000 to 100000 nM | 1000 to 10000 nM | > 1000 nM | 10000 to 100000 nM | > 1000 nM | – | –
Nc1ncsc1C#Cc1cccc(O)c1 [Compound A27, 3-(4-aminothiazol-5-ylethynyl)phenol] | 1000 to 10000 nM | 1000 to 10000 nM | 10000 to 100000 nM | 1000 to 10000 nM | 1000 to 10000 nM | > 1000 nM | > 1000 nM | 1000 to 10000 nM | > 1000 nM | > 1000 nM | – | –
